Values of other authors, collected in patent publication US12351592B2 (UNIVERSIDAD SANTIAGO DE CALI, priority 2019, dated 2025).

distribution volume (Vd) (in vivo): 654±358 I | access to erythrocytes (slow access): 5 % of the blood dose
SMILES: CN(C)C(=N)N=C(N)N [Metformin]
